The results in this text go back to article PMC9863751, “Specific Binding of the α-Component of the Lantibiotic Lichenicidin to the Peptidoglycan Precursor Lipid II Predetermines Its Antimicrobial Activity” (International Journal of Molecular Sciences, 2023).

The target of the experiment is T1, Lchα (α-component of the lantibiotic lichenicidin) (Bacillus licheniformis, UniProt P86475).
T1 construct: gene lchA1; mature post-translationally modified lantibiotic, 32 residues (leader removed; N-terminal 2-oxobutyryl, Abu3-Cys7 ring A, four (methyl)lanthionine rings); native purification from culture supernatant, 15N-labelled, no tag
T1 sequence (P86475 43-74): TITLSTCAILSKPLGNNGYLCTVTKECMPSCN
Nature of the experiment: NMR titration ([…]-HSQC, Asn32 signal intensity). In kind it is binding. The following applies: read-out: Kapp.

Take `CC(=O)N[C@H]1[C@H](O[C@H]2[C@H](O[C@H](C)C(=O)N[C@@H](C)C(=O)N[C@H](CCC(=O)N[C@@H](CCCCN)C(=O)N[C@H](C)C(=O)N[C@H](C)C(=O)O)C(=O)O)[C@@H](NC(C)=O)[C@@H](OP(=O)(O)OP(=O)(O)OC/C=C(/C)CC/C=C(/C)CC/C=C(/C)CC/C=C(/C)CC/C=C(/C)CC/C=C(/C)CC/C=C(/C)CC/C=C(/C)CC/C=C(\C)CC/C=C(\C)CCC=C(C)C)O[C@@H]2CO)O[C@H](CO)[C@@H](O)[C@@H]1O` [lipid II]: the Kd is approximately 10 µM.
